In experiment [1] the target is T1, mutated GAA (Homo sapiens, UniProt P10253, L552P).
T1 construct: expressed in transfected cells; host or cells: COS7 cells
Kind of experiment: Mutated GAA gene constructs expressed in COS7 cells (GAA activity, western blot). The note with it: 10 mM. Format: cell-based. How it is done:
(§1) GAA activity was assayed by using the fluorogenic substrate 4-methylumbelliferyl-alpha-D-glucopyranoside (Sigma-Aldrich) according to a published procedure [Porto et al, 2009]. Briefly, 25 micrograms of protein were incubated with the fluorogenic substrate (2 mM) in 0.2 M acetate buffer, pH 4.0, for 60 minutes in incubation mixtures of 100 μl. The reaction was stopped by adding 700 μl of glycine-carbonate buffer, pH 10.7. Fluorescence was read at 365 nm (excitation) and 450 nm (emission) on a Turner Biosystems Modulus fluorometer. Protein concentration in cell homogenates was measured by the Bradford assay (Biorad, Hercules, Calif.).
(§2) To study GAA immunoreactive material, fibroblast extracts were subjected to western blot analysis. The cells were harvested, washed in phosphate-buffered saline, resuspended in water, and disrupted by five cycles of freeze-thawing. Equal amounts (20 μg protein) of fibroblast extracts were subjected to sodium dodecyl sulfate polyacrylamide gel electrophoresis and proteins were transferred to PVD membrane (Millipore, Billerica, Mass.). An anti-human GAA antiserum was used as primary antibody to detect GAA polypeptides; to detect β-actin, a monoclonal mouse antibody was used Immunoreactive proteins were detected by chemiluminescence (ECL, Amersham, Freiburg, Germany)
(§3) The response of individual mutations to NAC was further evaluated by expressing a panel of mutated GAA gene constructs in COST cells, according to the methods reported in previous studies [Parenti et al, 2007; Flanagan et a, 2009] (FIG. 5B). The mutated constructs were chosen to be representative of both imino sugar-responsive and non-responsive mutations, in order to compare the chaperoning profile of NAC with that of imino sugars. The cells were transfected with the mutated constructs, incubated either in the presence or in the absence of 10 mM NAC and harvested 72 hours after transfection.
(In general: In western blotting, separated proteins are transferred to a membrane and probed.)

In experiment [2] the target is T2, mutated GAA (Homo sapiens, UniProt P10253, Y455F).
T2 construct: expressed in transfected cells; host or cells: COS7 cells
The description is as above. As to conditions: 10 mM, harvested 72 hours after transfection, p<0.05. Format: cell-based. The protocol:
as §1, §2, §3

Experiment [3] deals with T3, mutated GAA (Homo sapiens, UniProt P10253, G377R).
T3 construct: expressed in transfected cells; host or cells: COS7 cells
Described as above. Type of experiment: cell-based. As to conditions: 10 mM, harvested 72 hours after transfection. The protocol: as §1, §2, §3

Experiment [4] has as its target T4, mutated GAA (Homo sapiens, UniProt P10253, G549R).
T4 construct: expressed in transfected cells; host or cells: COS7 cells
Described as above. The note with it: 10 mM, COS7 cells, non-responsive mutation. Type of experiment: cell-based. How it is done: as §1, §2, §3

Experiment [5] addresses T5, mutated GAA (Homo sapiens, UniProt P10253, E579K).
T5 construct: expressed in transfected cells; host or cells: COS7 cells
Described as above. Format: cell-based. As to conditions: 10 mM, COS7 cells (FIG. 5B). How it is done: as §1, §2, §3

For experiment [6], the target named is T6, mutated GAA (Homo sapiens, UniProt P10253, A445P).
T6 construct: expressed in transfected cells; host or cells: COS7 cells
The experiment is described as above. The note with it: 10 mM. Type of experiment: cell-based. The protocol:
as §1, §2, §3

The target of experiment [7] is T7, rh-alpha-Gal A in Fabry disease cell lines (Homo sapiens, UniProt P06280).
T7 construct: purchased Genzyme Co, Cambridge, Mass., USA
T7 sequence (P06280 32-429): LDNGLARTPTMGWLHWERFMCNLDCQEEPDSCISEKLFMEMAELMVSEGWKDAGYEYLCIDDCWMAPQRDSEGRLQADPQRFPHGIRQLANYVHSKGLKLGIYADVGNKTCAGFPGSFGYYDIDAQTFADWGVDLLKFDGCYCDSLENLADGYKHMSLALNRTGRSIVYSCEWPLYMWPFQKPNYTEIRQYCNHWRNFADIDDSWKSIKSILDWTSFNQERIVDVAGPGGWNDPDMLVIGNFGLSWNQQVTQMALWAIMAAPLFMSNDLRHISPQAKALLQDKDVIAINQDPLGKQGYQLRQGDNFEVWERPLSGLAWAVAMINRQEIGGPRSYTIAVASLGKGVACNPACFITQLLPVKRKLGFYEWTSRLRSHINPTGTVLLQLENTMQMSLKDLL
In words: Correction by rh-alpha-Gal A in Fabry disease cell lines with chaperone. Format: cell-based. The note with it: three Fabry disease cell lines. How it is done: Fibroblasts from PD and Fabry disease patients were derived from skin biopsies after obtaining the informed consent of patients. Normal age-matched control fibroblasts were available in the laboratory of the Department of Pediatrics, Federico II University of Naples. All cell lines were grown at 37° C. with 5% CO2 in Dulbecco's modified Eagle's medium (Invitrogen, Grand Island, N.Y.) and 10% fetal bovine serum (Sigma-Aldrich, St Louis, Mo.), supplemented with 100 U/ml penicillin and […] streptomycin.

The target in a further experiment is T8, rhGAA in PD fibroblasts (Homo sapiens, UniProt P10253).
T8 construct: purchased Genzyme Co, Cambridge, Mass., USA
Kind of experiment: Correction of GAA activity by rhGAA in PD fibroblasts with chaperone (synergy). Type of experiment: cell-based. How it is done:
To study the rhGAA uptake and correction of GAA activity in PD fibroblasts, the cells were incubated with […] rhGAA for 24 hours, in the absence or in the presence of 10 mM NAC. Untreated cells or were used for comparison. After the incubation the cells were harvested by trypsinization and disrupted by 5 cycles of freezing and thawing.
as §1, §2
To study the distribution of AlexaFluor546 labeleld GAA, PD fibroblasts grown on coverslips were fixed using methanol, permeabilized using 0.1% saponin and locked with 0.01% saponin, 1% fetal bovine serum diluted in phosphate-buffered saline for 1 hour. The cells were incubated with the primary antibodies, with secondary antibodies in blocking solution and then mounted with vectashield mounting medium (Vector Laboratories, Burlingame, Calif.). Samples were examined with a Zeiss LSM 5 10 laser scanning confocal microscope. Authors used Argon/2 (458, 477, 488, and 514 nanometers) and HeNe1 (543 nanometers) excitation lasers, which were switched-on separately to reduce crosstalk of the two fluorochromes. The green and the red emissions were separated by a dichroic splitter (FT 560) and filtered (515-540-nm bandpass filter for green and >610-nm long pass filter for red emission). A threshold was applied to the images to exclude ˜99% of the signal found in control images.

The target of a further experiment is T9, rhGAA (Homo sapiens, UniProt P10253).
T9 construct: purchased Genzyme Co, Cambridge, Mass., USA
Kind of experiment: Thermal stability scans of rhGAA (SYPRO Orange). The note with it: pH 7.4. Type of experiment: binding. How it is done: Thermal stability scans of rhGAA were performed as described in [Flanagan et al. 2009]. Briefly, 2.5 μg of enzyme were incubated in the absence and in the presence of NAC and DNJ, 10 mM and 0.1 mM, respectively, SYPRO Orange dye, and sodium phosphate 25 mM buffer, 150 mM NaCl, pH 7.4 or sodium acetate 25 mM buffer, 150 mM NaCl, pH 5.2. Thermal stability scans were performed at 1° C./min in the range 25-95° C. in a Real Time LightCycler (Bio-Rad). SYPRO Orange fluorescence was normalized to maximum fluorescence value within each scan to obtain relative fluorescence. Melting temperatures were calculated according to (Niesen et al. 2007).

The values below come from US20150147309A1, “ALLOSTERIC CHAPERONES AND USES THEREOF” (Fondazione Telethon, priority 2012, published 2015).

As to `CC(=O)N[C@@H](CS)C(=O)O` [NAC, N-acetyl cysteine], the “76 KDa or 70 kDa active isoforms of GAA on western blot, p.L552P” value on mutated GAA [1] (COS7 cells) is “increase”. The “GAA activity, mutation p.L552P” value at mutated GAA [1] (harvested 72 hours after transfection, p<0.01) is “enhancement of GAA activity”. Moreover, the “GAA activity, mutation p.Y455F” value at mutated GAA [2] was “enhancement of GAA activity”. Also, the “increase in GAA activity, mutation pG377R” value at mutated GAA [3] was “not statistically significant”. In addition, on mutated GAA [4], the “amounts of GAA active isoforms on western blot, p.G549R” value is on record as “no change”. Further, on mutated GAA [5], the “GAA activity, mutation p.E579K” value is “increases of GAA activity”. Besides, the “76 KDa or 70 kDa active isoforms of GAA on western blot, p.A445P” value on mutated GAA [6] (COS7 cells) is given as “increase”. Also, on mutated GAA [6] (harvested 72 hours after transfection, p<0.05), the “GAA activity, mutation p.A445P” value is “enhancement of GAA activity”. The “enhancement of correction by rh-alpha-Gal A” value in experiment [7] is given as “no enhancing effect”. In addition, on rhGAA in PD fibroblasts (PD fibroblasts), the “amount of fluorochrome-labelled GAA compared to fluorescent GAA alone” value is “increase” and the “correction of the enzymatic defect on co-administration with rhGAA” value is reported as “complete correction”. Also, the “processing of rhGAA into the mature active isoforms” value on rhGAA in PD fibroblasts (PD fibroblasts, western blot band density) is on record as “improved”. The “GAA-related polypeptides on western blot compared to rhGAA alone” value on rhGAA in PD fibroblasts (PD fibroblasts, with rhGAA) is “increased amounts”. Moreover, at rhGAA in PD fibroblasts (fibroblasts from patient 3, 0.02-10 mM), the “improvement of GAA activity on co-administration with rhGAA, dose dependence” value was “dose-dependent effect”. Moreover, the ΔTm at 10000 µM at rhGAA (10 mM, read-out: increase of melting temperature (Tm) of rhGAA) worked out at 10.5 ± 0.5 °C. Further, the “Tm of rhGAA in the presence of chaperone” value on rhGAA (NAC 10 mM, DNJ 0.1 mM) worked out at 60.7±0.5 °C.
